Ten compounds from patent publication US20250122183A1 (Pfizer Inc., priority 2023, published 2025) can be followed below.

In one experiment the target is KAT6A Full length enzyme (Homo sapiens (Human), UniProt Q92794). The experiment can be described thus: KAT6A assay (SAMDI-MS acetylation of H3 1-21 peptide). Type of experiment: biochemical. The following applies: replicate number in parentheses.
In experiment [1] the target is KAT7+JADE1+EAF6+ING5 4 protein complex (Homo sapiens (Human), UniProt O95251). Briefly: KAT7 JADE1 assay (SAMDI-MS acetylation of H3 1-21 peptide). It is filed as biochemical. To be noted: replicate number in parentheses.
Setting [2] is: Morrison equation fit, read-out: KAT6A Ki (nM) (replicate number).
Where [3] appears, read: Morrison equation fit, read-out: KAT7 JADE1 Ki (nM) (replicate number).
[4] abbreviates: read-out: KAT6A Ki (nM) (replicate).
Where [5] appears, read: read-out: KAT7 JADE1 Ki (nM) (replicate).

Read-outs that look alike come from different tables or passages of the source. Some results are limits rather than exact numbers.

Chain of KAT6A Full length enzyme (Q92794 other isoform, or with tags, fused parts or gaps): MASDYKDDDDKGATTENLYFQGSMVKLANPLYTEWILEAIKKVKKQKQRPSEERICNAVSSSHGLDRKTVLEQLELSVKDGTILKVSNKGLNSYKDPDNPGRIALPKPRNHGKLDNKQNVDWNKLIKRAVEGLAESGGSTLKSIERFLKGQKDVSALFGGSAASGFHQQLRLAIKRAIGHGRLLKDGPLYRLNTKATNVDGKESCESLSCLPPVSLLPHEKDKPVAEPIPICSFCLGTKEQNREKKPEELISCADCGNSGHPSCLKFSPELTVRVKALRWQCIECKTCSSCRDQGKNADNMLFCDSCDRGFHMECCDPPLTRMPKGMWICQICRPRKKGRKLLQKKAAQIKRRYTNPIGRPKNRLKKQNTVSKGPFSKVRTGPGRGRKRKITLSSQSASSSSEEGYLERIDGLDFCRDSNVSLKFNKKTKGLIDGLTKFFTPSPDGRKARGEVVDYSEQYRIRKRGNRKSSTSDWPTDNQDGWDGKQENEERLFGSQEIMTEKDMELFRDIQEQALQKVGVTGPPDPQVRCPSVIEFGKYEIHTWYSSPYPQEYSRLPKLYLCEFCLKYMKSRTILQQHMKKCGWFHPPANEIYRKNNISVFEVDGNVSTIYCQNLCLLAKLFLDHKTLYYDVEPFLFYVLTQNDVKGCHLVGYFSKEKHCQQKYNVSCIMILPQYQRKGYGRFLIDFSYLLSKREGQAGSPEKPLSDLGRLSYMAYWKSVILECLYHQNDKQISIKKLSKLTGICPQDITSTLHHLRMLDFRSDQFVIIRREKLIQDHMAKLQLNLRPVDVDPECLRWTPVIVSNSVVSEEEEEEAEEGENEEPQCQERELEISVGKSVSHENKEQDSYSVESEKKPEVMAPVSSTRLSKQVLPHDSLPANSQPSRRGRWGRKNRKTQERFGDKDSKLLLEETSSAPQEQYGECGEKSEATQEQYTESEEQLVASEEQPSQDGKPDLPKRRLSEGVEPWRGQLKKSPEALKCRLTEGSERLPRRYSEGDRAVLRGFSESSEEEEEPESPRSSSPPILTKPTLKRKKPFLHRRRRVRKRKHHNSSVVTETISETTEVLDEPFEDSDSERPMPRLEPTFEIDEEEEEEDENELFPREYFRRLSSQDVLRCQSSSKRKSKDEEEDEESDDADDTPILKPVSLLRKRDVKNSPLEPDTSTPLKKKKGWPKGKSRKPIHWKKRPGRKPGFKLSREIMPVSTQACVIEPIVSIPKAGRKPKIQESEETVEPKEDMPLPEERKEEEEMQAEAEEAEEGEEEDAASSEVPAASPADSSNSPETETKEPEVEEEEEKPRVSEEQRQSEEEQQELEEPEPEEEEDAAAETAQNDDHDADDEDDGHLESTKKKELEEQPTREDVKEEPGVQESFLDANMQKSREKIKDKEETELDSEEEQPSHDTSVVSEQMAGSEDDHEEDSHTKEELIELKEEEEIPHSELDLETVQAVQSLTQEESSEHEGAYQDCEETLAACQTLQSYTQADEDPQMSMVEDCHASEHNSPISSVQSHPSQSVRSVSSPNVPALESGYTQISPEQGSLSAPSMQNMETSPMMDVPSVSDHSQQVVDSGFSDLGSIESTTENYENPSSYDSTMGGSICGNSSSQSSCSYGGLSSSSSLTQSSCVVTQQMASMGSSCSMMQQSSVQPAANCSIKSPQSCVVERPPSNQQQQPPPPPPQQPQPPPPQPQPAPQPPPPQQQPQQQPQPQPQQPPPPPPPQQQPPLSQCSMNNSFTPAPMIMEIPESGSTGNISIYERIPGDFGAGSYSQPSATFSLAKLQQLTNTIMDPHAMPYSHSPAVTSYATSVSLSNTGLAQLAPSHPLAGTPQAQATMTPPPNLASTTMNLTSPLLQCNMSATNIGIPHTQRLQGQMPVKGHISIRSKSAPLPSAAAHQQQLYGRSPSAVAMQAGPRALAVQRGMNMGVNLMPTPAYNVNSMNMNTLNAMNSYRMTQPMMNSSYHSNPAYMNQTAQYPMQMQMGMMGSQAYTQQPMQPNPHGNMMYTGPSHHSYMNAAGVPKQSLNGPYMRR

For the compound `COc1cc2c(NS(=O)(=O)c3c(OC)cc(C4CCCN(CC(F)F)C4)cc3OC)noc2cc1Nc1cc(C2CC2)n[nH]1` (single isomer, unassigned) [Example 167, N-{6-[(3-cyclopropyl-1 H-pyrazol-5-yl)amino]-5-methoxy-1,2-benzoxazol-3-yl}-4-[1-(2,2-difluoroethyl)piperidin-3-yl]-2,6-dimethoxybenzene-1-sulfonamide], the inhibition constant Ki at KAT6A Full length enzyme (setting [2]) amounted to 0.9 nM; in experiment [1] (setting [3]), 4 nM.

For the compound `COc1cc2c(NS(=O)(=O)c3c(OC)cc(C(=O)N4CCC(F)(F)CC4)cc3OC)noc2cc1Nc1cc(C2CC2)n[nH]1` [Example 263, N-{6-[(3-cyclopropyl-1H-pyrazol-5-yl)amino]-5-methoxy-1,2-benzoxazol-3-yl}-4-(4,4-difluoropiperidine-1-carbonyl)-2,6-dimethoxybenzene-1-sulfonamide], the Ki at KAT6A Full length enzyme (setting [4]) turned out to be 1.4 nM; in experiment [1] (setting [5]) it was 9.8 nM.

On to `COc1cc2c(NS(=O)(=O)c3c(OC)cc(CN4CCCC(F)(F)C4)cc3OC)noc2cc1Nc1cc(C2CC2)n[nH]1` [Example 199, N-{6-[(3-cyclopropyl-1H-pyrazol-5-yl)amino]-5-methoxy-1,2-benzoxazol-3-yl}-4-[(3,3-difluoropiperidin-1-yl)methyl]-2,6-dimethoxybenzene-1-sulfonamide], for which the values for the Ki (on KAT6A Full length enzyme (setting [2]); in experiment [1] (setting [3])) were 0.7 nM and 5.2 nM, respectively.

In the case of `COc1cc2c(NS(=O)(=O)c3c(OC)cccc3OC)noc2cc1Nc1ccn(C(C)C)n1` [Example 53, 2,6-dimethoxy-N-(5-methoxy-6-{[1-(propan-2-yl)-1H-pyrazol-3-yl]amino}-1,2-benzoxazol-3-yl)benzene-1-sulfonamide], the inhibition constant Ki is 19.8 nM on KAT6A Full length enzyme (setting [2]) and 441 nM in experiment [1] (setting [3]).

As for `COc1cccc(OC)c1S(=O)(=O)Nc1noc2cc(Nc3ncco3)cc(OC)c12` [Example 17, 2,6-dimethoxy-N-{4-methoxy-6-[(1,3-oxazol-2-yl)amino]-1,2-benzoxazol-3-yl}benzene-1-sulfonamide], the values for the Ki (at KAT6A Full length enzyme (setting [2]); in experiment [1] (setting [3])) were 1.9 nM and 1230 nM, respectively.

As to `COc1cc2c(NS(=O)(=O)c3c(OC)cc(C4CCOC4)cc3OC)noc2cc1Nc1cc(C2CC2)n[nH]1` (single isomer, unassigned) [Example 267, N-{6-[(3-cyclopropyl-1H-pyrazol-5-yl)amino]-5-methoxy-1,2-benzoxazol-3-yl}-2,6-dimethoxy-4-(oxolan-3-yl)benzene-1-sulfonamide], the figures for the Ki (on KAT6A Full length enzyme (setting [4]); in experiment [1] (setting [5])) were 1.3 nM and 9.3 nM, respectively.

For the compound `COc1cc2c(NS(=O)(=O)c3c(OC)cccc3OC)noc2cc1Nc1cc(C)nn1C(C)C` [Example 52, 2,6-dimethoxy-N-(5-methoxy-6-{[3-methyl-1-(propan-2-yl)-1H-pyrazol-5-yl]amino}-1,2-benzoxazol-3-yl)benzene-1-sulfonamide], the inhibition constant (Ki) on KAT6A Full length enzyme (setting [2]) was 73.5 nM; in experiment [1] (setting [3]), greater than 12500 nM.

For the compound `COc1cc2c(NS(=O)(=O)c3c(OC)cc(C4CCN([C@H]5CCOC5)C4)cc3OC)noc2cc1Nc1cc(C2CC2)n[nH]1` (single isomer, unassigned) [Example 163], the results for the Ki (at KAT6A Full length enzyme (setting [2]); in experiment [1] (setting [3])) were 1.4 nM and 8.2 nM, respectively.

Consider `COc1cc2c(NS(=O)(=O)c3c(OC)cc(CN4CCC(C(F)(F)F)C4)cc3OC)noc2cc1Nc1cc(C2CC2)n[nH]1` (centres unmarked) [Example 205, N-{6-[(3-cyclopropyl-1H-pyrazol-5-yl)amino]-5-methoxy-1,2-benzoxazol-3-yl}-2,6-dimethoxy-4-{[3-(trifluoromethyl)pyrrolidin-1-yl]methyl}benzene-1-sulfonamide], for which the figures for the Ki (on KAT6A Full length enzyme (setting [2]); in experiment [1] (setting [3])) were 1.4 nM and 6 nM, respectively.

Take `COc1cc2c(NS(=O)(=O)c3c(OC)cccc3OC)noc2cc1Nc1cc(C(F)(F)F)n[nH]1` [Example 93, 2,6-dimethoxy-N-(5-methoxy-6-{[3-(trifluoromethyl)-1H-pyrazol-5-yl]amino}-1,2-benzoxazol-3-yl)benzene-1-sulfonamide]: the figures for the inhibition constant (Ki) (at KAT6A Full length enzyme (setting [2]); in experiment [1] (setting [3])) were 31.2 nM and 729 nM, respectively.
